Experiment [1] concerns the target Mitogen-activated protein kinase 8 (Homo sapiens, UniProt P45983). Put plainly: Selectivity interaction (Kinase panel (Z-LYTE Assay)) EUB0001632a MAPK8. The note with it: at 10 µM.
In experiment [2] the target is T1, Cytoplasmic tyrosine-protein kinase BMX (Homo sapiens) (UniProt P51813).
T1 sequence (whole entry): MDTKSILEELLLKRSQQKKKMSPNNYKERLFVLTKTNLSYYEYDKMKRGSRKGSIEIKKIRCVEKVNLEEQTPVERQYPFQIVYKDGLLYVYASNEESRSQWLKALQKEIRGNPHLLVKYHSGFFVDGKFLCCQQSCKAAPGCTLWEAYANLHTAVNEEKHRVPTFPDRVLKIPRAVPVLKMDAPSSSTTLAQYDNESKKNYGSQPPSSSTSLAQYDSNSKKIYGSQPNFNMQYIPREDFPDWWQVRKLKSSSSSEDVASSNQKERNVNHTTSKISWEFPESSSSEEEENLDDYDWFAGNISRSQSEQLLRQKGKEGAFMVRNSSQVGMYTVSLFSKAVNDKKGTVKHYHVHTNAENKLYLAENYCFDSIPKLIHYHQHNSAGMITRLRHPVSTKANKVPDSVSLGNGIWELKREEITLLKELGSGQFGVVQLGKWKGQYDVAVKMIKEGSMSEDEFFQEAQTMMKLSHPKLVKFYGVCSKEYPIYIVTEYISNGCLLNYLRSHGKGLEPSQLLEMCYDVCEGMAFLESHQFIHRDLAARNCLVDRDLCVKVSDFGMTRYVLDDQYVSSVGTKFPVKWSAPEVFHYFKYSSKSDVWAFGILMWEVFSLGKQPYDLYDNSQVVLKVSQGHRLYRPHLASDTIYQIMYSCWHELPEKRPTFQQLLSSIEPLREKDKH
Kind of experiment: Selectivity interaction (KinomeScan (DiscoverX)) EUB0000595a BMX. The note with it: at 10 µM.

The target in experiment [3] is T2, cAMP-dependent protein kinase catalytic subunit PRKX (Homo sapiens) (UniProt P51817).
T2 sequence (whole entry): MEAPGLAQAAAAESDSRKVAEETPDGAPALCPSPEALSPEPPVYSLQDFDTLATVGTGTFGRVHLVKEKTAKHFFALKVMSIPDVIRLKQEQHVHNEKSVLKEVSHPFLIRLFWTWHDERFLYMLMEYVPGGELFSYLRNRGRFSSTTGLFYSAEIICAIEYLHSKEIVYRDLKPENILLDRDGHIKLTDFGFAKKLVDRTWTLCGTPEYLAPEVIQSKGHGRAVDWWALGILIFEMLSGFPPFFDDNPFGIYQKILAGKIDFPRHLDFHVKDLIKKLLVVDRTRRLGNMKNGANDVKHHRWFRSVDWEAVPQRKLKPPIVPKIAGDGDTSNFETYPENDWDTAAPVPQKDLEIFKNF
Kind of experiment: Selectivity interaction (KinomeScan (DiscoverX)) EUB0001619a PRKX. The note with it: at 1 µM.

In experiment [4] the target is MAP kinase-activated protein kinase 2 (Homo sapiens, UniProt P49137). The note with it: at 10 µM.
Sequence of MAP kinase-activated protein kinase 2 (P49137 whole entry, looked up): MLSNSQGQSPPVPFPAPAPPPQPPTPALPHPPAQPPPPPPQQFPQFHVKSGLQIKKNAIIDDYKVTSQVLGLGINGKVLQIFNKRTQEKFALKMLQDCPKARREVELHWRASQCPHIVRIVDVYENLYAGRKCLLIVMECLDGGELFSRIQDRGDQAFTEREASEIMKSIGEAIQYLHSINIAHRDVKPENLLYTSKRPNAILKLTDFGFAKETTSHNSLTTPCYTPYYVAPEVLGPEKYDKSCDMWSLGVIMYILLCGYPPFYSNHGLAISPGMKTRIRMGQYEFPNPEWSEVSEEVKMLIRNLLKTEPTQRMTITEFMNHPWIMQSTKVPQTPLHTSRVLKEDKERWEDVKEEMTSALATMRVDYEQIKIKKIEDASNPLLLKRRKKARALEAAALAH
The target of experiment [5] is T3, Serine/threonine-protein kinase D1 (Homo sapiens) (UniProt Q15139).
T3 sequence (whole entry): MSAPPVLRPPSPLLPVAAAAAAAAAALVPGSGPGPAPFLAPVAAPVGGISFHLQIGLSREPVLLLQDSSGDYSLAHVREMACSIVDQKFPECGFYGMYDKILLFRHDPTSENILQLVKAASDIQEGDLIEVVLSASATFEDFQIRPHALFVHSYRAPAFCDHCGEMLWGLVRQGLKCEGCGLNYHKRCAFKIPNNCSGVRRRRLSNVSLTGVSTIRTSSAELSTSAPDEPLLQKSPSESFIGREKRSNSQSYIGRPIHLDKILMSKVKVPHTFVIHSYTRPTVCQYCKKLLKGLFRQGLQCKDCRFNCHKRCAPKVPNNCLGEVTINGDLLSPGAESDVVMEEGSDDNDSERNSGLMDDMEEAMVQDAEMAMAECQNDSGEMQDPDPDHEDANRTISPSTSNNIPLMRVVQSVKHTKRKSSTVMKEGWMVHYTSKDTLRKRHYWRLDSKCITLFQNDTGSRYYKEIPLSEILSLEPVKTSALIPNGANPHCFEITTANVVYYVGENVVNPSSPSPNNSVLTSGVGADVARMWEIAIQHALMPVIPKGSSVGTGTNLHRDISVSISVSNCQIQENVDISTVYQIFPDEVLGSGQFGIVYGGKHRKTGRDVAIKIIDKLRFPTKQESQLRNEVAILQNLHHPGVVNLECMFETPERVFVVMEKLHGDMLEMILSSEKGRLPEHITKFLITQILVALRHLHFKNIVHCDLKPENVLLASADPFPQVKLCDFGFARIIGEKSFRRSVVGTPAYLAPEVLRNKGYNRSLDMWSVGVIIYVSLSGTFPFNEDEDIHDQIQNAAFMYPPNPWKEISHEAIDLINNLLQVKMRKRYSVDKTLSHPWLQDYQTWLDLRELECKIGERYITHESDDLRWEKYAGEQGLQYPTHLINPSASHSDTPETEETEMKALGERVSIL
The note with it: at 10 µM.

The target of experiment [6] is Tyrosine-protein kinase Srms (Homo sapiens) (UniProt Q9H3Y6). Put plainly: Selectivity interaction (KinomeScan (DiscoverX)) EUB0000695a SRMS. The note with it: at 100 nM.
Sequence of Tyrosine-protein kinase Srms (Homo sapiens) (Q9H3Y6 whole entry): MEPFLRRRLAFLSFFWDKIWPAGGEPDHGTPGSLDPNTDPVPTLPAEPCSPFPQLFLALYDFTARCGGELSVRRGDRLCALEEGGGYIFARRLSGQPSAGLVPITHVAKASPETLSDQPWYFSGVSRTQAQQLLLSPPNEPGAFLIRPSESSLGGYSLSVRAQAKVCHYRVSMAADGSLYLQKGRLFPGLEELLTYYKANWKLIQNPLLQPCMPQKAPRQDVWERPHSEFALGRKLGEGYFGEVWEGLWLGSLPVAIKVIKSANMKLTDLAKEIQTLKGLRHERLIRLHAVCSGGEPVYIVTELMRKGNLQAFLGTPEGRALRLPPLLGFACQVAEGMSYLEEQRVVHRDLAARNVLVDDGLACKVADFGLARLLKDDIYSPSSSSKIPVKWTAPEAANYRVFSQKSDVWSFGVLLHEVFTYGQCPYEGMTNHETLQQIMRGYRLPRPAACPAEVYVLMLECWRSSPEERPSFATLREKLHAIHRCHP
The target in experiment [7] is Serine/threonine-protein kinase WNK1 (Homo sapiens) (UniProt Q9H4A3). Kind of experiment: Selectivity interaction (KinomeScan (DiscoverX)) EUB0000607a WNK1. The note with it: at 10 µM.
Sequence of Serine/threonine-protein kinase WNK1 (Homo sapiens) (Q9H4A3 whole entry, looked up): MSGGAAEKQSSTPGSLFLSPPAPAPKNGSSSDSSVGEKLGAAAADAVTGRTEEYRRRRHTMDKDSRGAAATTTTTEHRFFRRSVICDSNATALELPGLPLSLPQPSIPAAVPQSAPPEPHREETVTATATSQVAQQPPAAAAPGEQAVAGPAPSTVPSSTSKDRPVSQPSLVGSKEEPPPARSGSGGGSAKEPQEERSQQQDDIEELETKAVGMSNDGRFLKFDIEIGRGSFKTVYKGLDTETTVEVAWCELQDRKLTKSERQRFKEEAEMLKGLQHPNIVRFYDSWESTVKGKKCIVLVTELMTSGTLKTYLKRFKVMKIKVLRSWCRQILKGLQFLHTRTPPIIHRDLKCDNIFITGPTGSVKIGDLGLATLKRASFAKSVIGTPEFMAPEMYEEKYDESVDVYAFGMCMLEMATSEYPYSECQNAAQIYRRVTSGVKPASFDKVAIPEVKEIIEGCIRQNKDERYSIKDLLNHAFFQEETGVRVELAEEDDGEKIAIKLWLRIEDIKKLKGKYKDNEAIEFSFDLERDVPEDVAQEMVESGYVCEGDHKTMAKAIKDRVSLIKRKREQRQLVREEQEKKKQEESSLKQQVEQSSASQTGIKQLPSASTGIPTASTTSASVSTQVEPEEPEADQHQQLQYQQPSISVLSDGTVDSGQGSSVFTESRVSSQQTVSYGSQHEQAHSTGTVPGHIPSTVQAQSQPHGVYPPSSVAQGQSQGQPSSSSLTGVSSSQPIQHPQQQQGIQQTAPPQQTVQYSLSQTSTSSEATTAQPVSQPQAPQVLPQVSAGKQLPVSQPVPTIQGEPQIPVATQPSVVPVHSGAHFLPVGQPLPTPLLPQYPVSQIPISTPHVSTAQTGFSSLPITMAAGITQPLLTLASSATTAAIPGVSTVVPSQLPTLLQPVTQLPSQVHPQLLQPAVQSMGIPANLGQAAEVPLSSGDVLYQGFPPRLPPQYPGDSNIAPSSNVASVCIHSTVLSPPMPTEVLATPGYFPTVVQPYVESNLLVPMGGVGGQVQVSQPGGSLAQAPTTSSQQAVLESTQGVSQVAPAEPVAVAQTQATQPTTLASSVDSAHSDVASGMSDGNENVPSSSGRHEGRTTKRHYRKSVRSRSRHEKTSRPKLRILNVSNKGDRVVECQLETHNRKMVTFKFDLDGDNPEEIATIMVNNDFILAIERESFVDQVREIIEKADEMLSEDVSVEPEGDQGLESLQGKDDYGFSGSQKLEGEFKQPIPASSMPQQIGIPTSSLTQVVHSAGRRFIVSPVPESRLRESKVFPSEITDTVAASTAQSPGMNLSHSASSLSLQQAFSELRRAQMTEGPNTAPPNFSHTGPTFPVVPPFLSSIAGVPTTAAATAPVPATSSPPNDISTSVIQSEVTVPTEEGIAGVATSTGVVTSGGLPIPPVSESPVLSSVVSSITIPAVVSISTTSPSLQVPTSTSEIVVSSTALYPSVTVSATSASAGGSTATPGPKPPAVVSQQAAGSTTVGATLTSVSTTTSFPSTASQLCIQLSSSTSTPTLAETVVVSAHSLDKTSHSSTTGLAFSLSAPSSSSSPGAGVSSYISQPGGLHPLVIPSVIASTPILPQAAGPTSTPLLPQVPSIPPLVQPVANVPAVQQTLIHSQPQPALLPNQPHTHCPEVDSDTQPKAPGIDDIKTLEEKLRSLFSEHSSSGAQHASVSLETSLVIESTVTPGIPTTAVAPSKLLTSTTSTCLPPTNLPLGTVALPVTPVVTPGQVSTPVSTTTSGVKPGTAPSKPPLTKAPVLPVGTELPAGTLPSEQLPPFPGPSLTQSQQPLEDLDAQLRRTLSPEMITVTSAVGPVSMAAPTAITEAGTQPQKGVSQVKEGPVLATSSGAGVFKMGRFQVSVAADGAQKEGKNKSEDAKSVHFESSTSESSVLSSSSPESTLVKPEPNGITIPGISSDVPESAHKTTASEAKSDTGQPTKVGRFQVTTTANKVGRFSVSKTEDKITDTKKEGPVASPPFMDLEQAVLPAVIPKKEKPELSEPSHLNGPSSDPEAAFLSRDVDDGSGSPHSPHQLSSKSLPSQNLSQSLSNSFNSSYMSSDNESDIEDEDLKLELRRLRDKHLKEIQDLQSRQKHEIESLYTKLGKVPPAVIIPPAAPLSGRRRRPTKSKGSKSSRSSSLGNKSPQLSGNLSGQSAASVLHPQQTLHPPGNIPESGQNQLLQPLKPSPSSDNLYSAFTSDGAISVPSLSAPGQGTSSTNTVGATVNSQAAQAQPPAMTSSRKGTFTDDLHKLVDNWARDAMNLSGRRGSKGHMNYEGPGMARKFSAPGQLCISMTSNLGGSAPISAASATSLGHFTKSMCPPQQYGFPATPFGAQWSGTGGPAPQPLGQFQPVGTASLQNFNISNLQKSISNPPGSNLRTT
The target in experiment [8] is T4, Dual specificity tyrosine-phosphorylation-regulated kinase 3 (Homo sapiens, UniProt O43781).
T4 sequence (O43781 whole entry): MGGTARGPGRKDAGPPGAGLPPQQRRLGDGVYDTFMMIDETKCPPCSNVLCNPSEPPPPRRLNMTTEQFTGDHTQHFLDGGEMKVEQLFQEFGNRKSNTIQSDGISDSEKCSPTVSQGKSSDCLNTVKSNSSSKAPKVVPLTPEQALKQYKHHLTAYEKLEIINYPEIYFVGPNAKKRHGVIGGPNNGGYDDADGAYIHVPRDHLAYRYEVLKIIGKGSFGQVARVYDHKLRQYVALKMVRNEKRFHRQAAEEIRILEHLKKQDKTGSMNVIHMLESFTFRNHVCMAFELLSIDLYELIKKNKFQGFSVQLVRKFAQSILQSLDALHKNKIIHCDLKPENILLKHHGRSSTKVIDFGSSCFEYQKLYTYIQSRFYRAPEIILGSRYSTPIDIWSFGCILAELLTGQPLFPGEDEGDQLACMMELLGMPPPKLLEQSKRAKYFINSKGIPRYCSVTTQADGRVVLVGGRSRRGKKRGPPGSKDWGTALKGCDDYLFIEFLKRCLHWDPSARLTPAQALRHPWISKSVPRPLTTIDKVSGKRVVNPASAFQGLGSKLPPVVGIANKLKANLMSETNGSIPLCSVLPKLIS
Kind of experiment: Selectivity interaction (Enzymatic assay (Eurofins)) EUB0001049a DYRK3.

Sequence of Mitogen-activated protein kinase 8 (P45983 whole entry): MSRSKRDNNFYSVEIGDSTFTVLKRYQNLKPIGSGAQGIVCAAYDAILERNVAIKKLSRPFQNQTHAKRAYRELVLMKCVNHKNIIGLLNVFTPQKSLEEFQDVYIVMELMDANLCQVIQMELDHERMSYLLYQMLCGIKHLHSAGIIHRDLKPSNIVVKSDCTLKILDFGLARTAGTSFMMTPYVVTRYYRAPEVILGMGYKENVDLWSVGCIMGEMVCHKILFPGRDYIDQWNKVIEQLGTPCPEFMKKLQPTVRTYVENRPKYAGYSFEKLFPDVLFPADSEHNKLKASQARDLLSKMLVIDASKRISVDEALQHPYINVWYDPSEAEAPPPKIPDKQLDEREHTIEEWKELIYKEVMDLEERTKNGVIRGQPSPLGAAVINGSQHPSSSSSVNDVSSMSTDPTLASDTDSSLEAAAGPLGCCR

Take `Cn1cc(-n2cnc3c(NCc4nc5cc(Cl)c(Cl)cc5[nH]4)nc(N4CCOCC4)nc32)cn1`: in experiment [1], the % of control was -4.21%.
On to `COCC(=O)NC/C=C/c1ccc2ncnc(Nc3ccc(Oc4ccc(C)nc4)c(C)c3)c2c1` [CP-724714], for which, in experiment [2], the % of control is 73%.
For the compound `N#Cc1cccc(-c2c[nH]c3ncnc(N4CCOCC4)c23)c1`, in experiment [3], the % of control is 100%.
Take `CCN(CC)CCCCNc1ncc2cc(-c3cc(OC)cc(OC)c3)c(NC(=O)NC(C)(C)C)nc2n1`: the % of control in experiment [4] and in experiment [5] was 100% throughout.
As for `Cc1cc(F)c(C(=O)Nc2cccc(-c3nncn3C(C)C)n2)cc1-n1cnc(C2CC2)c1`, in experiment [6], the % of control came out at 100%.
As for `CNC(=O)Nc1ccc(-c2nc(N3CC4CCC(C3)O4)c3cnn(C4CCC5(CC4)OCCO5)c3n2)cc1`, the % of control in experiment [7] was 95%.
As for `COc1cc(Nc2nc(C)cc(-c3cnn4nc(OC)ccc34)n2)cc(C(F)(F)F)c1`, in experiment [8], the IC50 was greater than 10 µM.

The term IC50 denotes the concentration that gives 50% inhibition. A lower IC50 goes with inhibition by little substance.

The record behind these values is ChEMBL document CHEMBL5465560, “Selectivity Literature for EUbOPEN Chemogenomic Library” (2024).
